Measured values from patent publication US20230113011A1, “METHODS OF TREATING ILLNESSES CAUSED BY CORONAVIRUS, SWINE FLU AND AVIAN FLU” (CMTx Biotech Inc., priority 2020, published 2023).

Conditions: in vivo

NC(=O)C1=C(O)C[C@@H]2C[C@@H]3Cc4cccc(O)c4C(=O)C3=C(O)[C@]2(O)C1=O [CMT-3, 6-demethyl-6-deoxy-4-dedimethylaminotetracycline]
plasma concentrations in humans: about 1.0 μg/ml
